Test results published in US6969719B2, “Polycyclic guanine phosphodiesterase V inhibitors” (Schering Corporation, priority 2001, dated 2005).
Where “and” joins values, the source holds several entries; their conditions need not be identical. Equal values may be shown once.

Each compound was assayed against PDE V (Homo sapiens, UniProt O76074) (assay: PDE V isoenzyme inhibition (IC50)). Conditions: concentration required to provide 50% inhibition of PDE V.
Type: biochemical
Text: The compounds of the invention can be useful for inhibiting PDE V isoenzymes. Isoenzyme activities and isoenzyme selectivities for particular compounds can be evaluated in a number of ways.

| IC50 | SMILES |
| --- | --- |
| ≤ 10 nM | CCN1C(=O)c2c(nc(Br)n2Cc2cc(Br)c3c(c2)CCO3)N2C[C@@H](Cc3ccccc3)N=C12 [Compound 3] |
| ≤ 5 nM | CCN1C(=O)c2c(ncn2Cc2cc(Cl)c3c(c2)CCO3)N2C[C@@H](Cc3ccccc3)N=C12 [Compound 6] |
| ≤ 5 nM | CCN1C(=O)c2c(nc(C(N)=O)n2Cc2cc(Br)c3c(c2)CCO3)N2C[C@@H](Cc3ccccc3)N=C12 [Compound 8] |
| ≤ 5 nM | CCN1C(=O)c2c(nc(C=NO)n2Cc2ccc(O)c(Cl)c2)N2C[C@@H](Cc3ccccc3)N=C12 [Compound 11] |
| ≤ 10 nM | CCN1C(=O)c2c(nc(NC3CCOCC3)n2Cc2ccc(O)c(Br)c2)N2CCN=C12 [Compound 1] |
| ≤ 5 nM | CCN1C(=O)c2c(nc(OCc3ccccc3)n2Cc2ccc(O)c(Cl)c2)N2C[C@@H](Cc3ccccc3)N=C12 [Compound 13] |
| ≤ 5 nM | CCN1C(=O)c2c(nc(C(N)=O)n2Cc2cc(Cl)c3c(c2)CCO3)N2C[C@@H](Cc3ccccc3)N=C12 [Compound 10] |
| ≤ 5 nM | CCOc1nc2c(n1Cc1ccc(O)c(Br)c1)C(=O)N(CC)C1=N[C@H](Cc3ccccc3F)CN12 [Compound 54] |
| ≤ 5 nM | CCN1C(=O)c2c(nc(NC3CCCCC3)n2Cc2ccc(O)c(Br)c2)N2C[C@@H](Cc3ccccc3)N=C12 [Compound 9] |
| ~18 nM | CCN1C(=O)c2c(nc(NC3CCOCC3)n2Cc2cc(Cl)c3c(c2)CCO3)N2CCN=C12 [Compound 35] |
| ≤ 5 nM | CCN1C(=O)c2c(nc(C#Cc3ccccc3)n2Cc2ccc(O)c(Cl)c2)N2C[C@@H](Cc3ccccc3)N=C12 [Compound 19] |
| ~18 nM | CCN1C(=O)c2c(nc(NC3CCOCC3)n2Cc2cc(Br)c3c(c2)CCO3)N2CCN=C12 [Compound 36] |
| ≤ 5 nM | CCN1C(=O)c2c(nc(C#Cc3ccccc3)n2Cc2cc(Cl)c(OC)c(Cl)c2)N2CC3(CCCC3)N=C12 [Compound 44] |
| ≤ 10 nM and ~10 nM | CCN1C(=O)c2c(nc(OC)n2Cc2ccc(OC)c(C#N)c2)N2C[C@@H](Cc3ccccc3)N=C12 [Compound 34] |
| ≤ 6 nM | CCN1C(=O)c2c(nc(C(=O)OC)n2Cc2cc(Cl)c3c(c2)CCO3)N2C[C@@H](Cc3ccccc3)N=C12 [Compound 4] |
| ≤ 5 nM | CCN1C(=O)c2c(nc(Br)n2Cc2cc(Cl)c3c(c2)CCO3)N2C[C@@H](Cc3ccccc3)N=C12 [Compound 15] |

More lines, now with the values behind:

| SMILES | IC50 |
| --- | --- |
| CCN1C(=O)c2c(nc(N[C@@H]3CC[C@H](O)C3)n2Cc2ccc(OC)c(Br)c2)N2CCN=C12 [Compound 59] | ≤ 10 nM |
| CCN1C(=O)c2c(nc(N[C@@H]3CCC[C@H]3O)n2Cc2ccc(OC)c(Br)c2)N2C1=NCC2C (stereo partly drawn) [Compound 56] | ≤ 5 nM |
| CCN1C(=O)c2c(nc(NC3CCSCC3)n2Cc2ccc(OC)c(Br)c2)N2CCN=C12 [Compound 58] | ≤ 5 nM |
| CCN1C(=O)c2nc(C#Cc3ccccc3)n(Cc3ccc(O)cc3)c2N2CC3(CCCC3)N=C12 [Compound 22] | ≤ 5 nM |
| CCN1C(=O)c2c(nc(NC3CCOCC3)n2Cc2ccc(OC)c(Cl)c2)N2CCN=C12 [Compound 16] | ≤ 10 nM and ≤ 5 nM and ≤ 6 nM and ~1.5 nM |
| CCN1C(=O)c2c(nc(NC3CCOCC3)n2Cc2ccc(OC)c(Cl)c2)N2CCCN=C12 [Compound 21] | ≤ 10 nM |
| CCN1C(=O)c2c(nc(NC3CCOCC3)n2Cc2ccc(O)c(C)c2)N2CCN=C12 [Compound 30] | ~52 nM |
| CCN1C(=O)c2c(nc(NC3CCOCC3)n2Cc2ccc(O)c(Cl)c2)N2CCN=C12 [Compound 2] | < 8 nM |
| CCN1C(=O)c2c(nc(NC3CCOCC3)n2Cc2ccc(OC)c(Br)c2)N2CCCN=C12 [Compound 20] | ≤ 5 nM |
| CCN1C(=O)c2c(nc(NC3CCOCC3)n2Cc2ccc(OC)c(Br)c2)N2CCN=C12 [Compound 18] | ≤ 5 nM |
| CCN1C(=O)c2nc(C#Cc3ccccc3)n(Cc3ccc(OC(C)=O)cc3)c2N2CC3(CCCC3)N=C12 [Compound 7] | ≤ 5 nM |
| CCN1C(=O)c2c(nc(NC3CCCCC3)n2Cc2ccc(O)c(Cl)c2)N2C1=N[C@@H]1CCC[C@@H]12 [Compound 5] | ≤ 6 nM |
| CCN1C(=O)c2c(nc(NC3CCSCC3)n2Cc2ccc(OC)c(Cl)c2)N2CCN=C12 [Compound 57] | ≤ 10 nM |
| CCN1C(=O)c2c(nc(NC3CCCCC3)n2Cc2ccc(O)c(Br)c2)N2C1=N[C@@H]1CCC[C@@H]12 [Compound 12] | ≤ 5 nM |
| CCN1C(=O)c2c(nc(NC3CCCC3)n2Cc2ccc(OC)c(Cl)c2)N2CCN=C12 [Compound 43] | ≤ 5 nM |
| CCN1C(=O)c2c(nc(NC3CCCCC3)n2Cc2ccc(OC)c(Br)c2)N2C1=N[C@@H]1CCC[C@@H]12 [Compound 17] | ≤ 5 nM |
| CCN1C(=O)c2c(nc(NC3CCCCC3)n2Cc2ccc(OC)c(Cl)c2)N2CCN=C12 [Compound 42] | ≤ 5 nM |
| CCN1C(=O)c2c(nc(NC3CCCCC3)n2Cc2ccc(OC)c(Br)c2)N2CCN=C12 [Compound 14] | ≤ 5 nM |

Same assay, conditions: enzyme selectivity, PDE V relative to PDE VI

| ratio of PDE VI IC50/PDE V IC50 | SMILES |
| --- | --- |
| > 190 | CCN1C(=O)c2c(nc(NC3CCOCC3)n2Cc2ccc(O)c(C)c2)N2CCN=C12 [Compound 30] |
| > 600 | CCN1C(=O)c2c(nc(NC3CCOCC3)n2Cc2ccc(O)c(Cl)c2)N2CCN=C12 [Compound 2] |
